Measured values reported in article PMC5412352 (International Journal of Molecular Sciences, 2017).
“Also recorded” adds a separate entry of the source.

Legend:
adrenergic α1ARs = test: Commercial screening by Eurofins Panlabs; type: binding
[1] = target: human GhrR (hGhrR-eYFP, HEK293 cell membranes) (Homo sapiens, UniProt Q92847); test: Competitive radioligand binding assay with [125I-His9]ghrelin at hGhrR membranes
muscarinic M1Rs = target: T1, muscarinic M1Rs (Homo sapiens, UniProt P11229); test: Commercial screening by Eurofins Panlabs; type: binding
T1 construct: Eurofins Panlabs (Taiwan), contract screening
T1 sequence (P11229 1-460): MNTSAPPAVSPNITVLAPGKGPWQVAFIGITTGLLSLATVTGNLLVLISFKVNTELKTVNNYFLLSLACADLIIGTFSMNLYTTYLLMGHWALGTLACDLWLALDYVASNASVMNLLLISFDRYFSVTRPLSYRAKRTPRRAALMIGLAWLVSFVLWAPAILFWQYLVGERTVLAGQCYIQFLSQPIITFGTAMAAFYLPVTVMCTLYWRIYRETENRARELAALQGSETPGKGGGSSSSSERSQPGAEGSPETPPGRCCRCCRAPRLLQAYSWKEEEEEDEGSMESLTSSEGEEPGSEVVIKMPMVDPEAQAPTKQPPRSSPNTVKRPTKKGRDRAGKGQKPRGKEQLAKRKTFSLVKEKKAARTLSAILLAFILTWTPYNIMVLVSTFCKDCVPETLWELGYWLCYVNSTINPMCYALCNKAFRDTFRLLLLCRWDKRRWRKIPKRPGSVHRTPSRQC

serotonin 5-HT2BRs = target: T2, serotonin 5-HT2BRs (Homo sapiens, UniProt P41595); test: Commercial screening by Eurofins Panlabs; type: binding
T2 construct: Eurofins Panlabs (Taiwan), contract screening
T2 sequence (P41595 whole entry): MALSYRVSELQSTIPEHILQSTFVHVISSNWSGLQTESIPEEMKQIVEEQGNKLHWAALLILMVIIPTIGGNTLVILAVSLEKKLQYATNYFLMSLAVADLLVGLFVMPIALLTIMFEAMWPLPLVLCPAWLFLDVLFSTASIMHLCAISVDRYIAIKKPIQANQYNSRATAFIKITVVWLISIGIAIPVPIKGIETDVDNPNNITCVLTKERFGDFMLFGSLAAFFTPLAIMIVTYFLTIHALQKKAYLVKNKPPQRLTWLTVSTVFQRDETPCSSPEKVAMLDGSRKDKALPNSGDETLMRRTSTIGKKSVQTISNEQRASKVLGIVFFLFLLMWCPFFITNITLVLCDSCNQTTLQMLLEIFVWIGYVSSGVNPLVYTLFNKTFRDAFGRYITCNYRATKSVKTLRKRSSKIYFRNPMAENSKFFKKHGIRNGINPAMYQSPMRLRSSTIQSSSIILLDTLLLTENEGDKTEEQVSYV

[2] = target: T3, hGhrR (COS7 cells stably transfected with hGhrR) (Homo sapiens, UniProt Q92847); test: Inositol phosphate accumulation assay, antagonistic potency with 10^-8 M ghrelin; type: cell-based
T3 construct: expressed in transfected cells
T3 sequence (Q92847 whole entry): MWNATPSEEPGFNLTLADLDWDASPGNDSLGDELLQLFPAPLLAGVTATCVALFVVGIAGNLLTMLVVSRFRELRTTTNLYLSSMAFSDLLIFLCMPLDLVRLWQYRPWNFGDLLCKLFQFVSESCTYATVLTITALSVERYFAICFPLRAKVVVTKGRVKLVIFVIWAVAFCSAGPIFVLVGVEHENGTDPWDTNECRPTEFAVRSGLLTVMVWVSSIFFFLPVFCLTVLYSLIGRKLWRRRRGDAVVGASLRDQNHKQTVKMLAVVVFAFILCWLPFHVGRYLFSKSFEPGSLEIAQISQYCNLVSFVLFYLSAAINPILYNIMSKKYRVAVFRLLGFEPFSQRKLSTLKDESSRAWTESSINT
Description: Antagonistic properties at the hGhrR
antagonistic potency in an inositol phosphate accumulation assay (Table S1). The receptor was
Table S1. Inositol phosphate accumulation assay to determine antagonistic potencies of candidate
Compounds were analyzed by inositol phosphate accumulation in COS7 cells stably

adrenergic α1BRs = test: Commercial screening by Eurofins Panlabs; type: binding
rat σ2 receptor = target: T4, rat σ2 receptor (Rattus norvegicus, UniProt Q5U3Y7); test: Selectivity radioligand displacement, [3H]DTG, rat liver homogenate; type: binding; conditions: [3H]DTG + 1 µM dextrallorphan
T4 construct: rat σ2 receptor = rat liver homogenate; from tissue; host or cells: rat liver homogenate
T4 sequence (Q5U3Y7 1-176): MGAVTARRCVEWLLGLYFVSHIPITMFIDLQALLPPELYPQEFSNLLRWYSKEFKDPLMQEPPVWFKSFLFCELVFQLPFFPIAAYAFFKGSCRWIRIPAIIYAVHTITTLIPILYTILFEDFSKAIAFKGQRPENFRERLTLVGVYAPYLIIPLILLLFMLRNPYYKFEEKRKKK
Description: […]
The incubations were terminated by rapid filtration via glass-fiber filters presoaked in PEI (0.3%, 60 min at rt), and the filter-bound radioactivity was counted by liquid scintillation counting (Tricarb, PerkinElmer).

GhrR = target: GhrR; set-up: method as in PMID 22342626; conditions: previously published value; cited from earlier work
[3] = HPLC-based chromatographic hydrophobicity index on immobilized artificial membranes (CHI IAM); type: physicochemical; conditions: IAM PC DD2 column, acetonitrile / 50 mM ammonium acetate gradient
From the text: Physicochemical properties of a drug such as lipophilicity and non-specific binding to membranes and plasma proteins are crucial parameters of a potential radiotracer, in particular if it is supposed to pass the blood brain barrier (BBB). The lipophilicity (logD7.4) was estimated using the commercially available ACD/Labs-12.5 software and the non-specific binding was estimated by the high-performance liquid chromatography (HPLC)-based hydrophobicity index at immobilized artificial membranes (CHI IAM) for seven fluorine substituted candidate molecules and (S)-13 without fluorine (Table 3).
The chromatographic hydrophobicity index on immobilized artificial membranes (CHI IAM) was experimentally determined by a HPLC method described by Valko and co-workers using a IAM PC DD2 column (100 × 4.6 mm, […], Regis Technologies, IL, USA), a gradient of acetonitrile, and 50 mM ammonium acetate as eluent and acetanilide, acetophenone, 1,4-dinitrobenzene, anisole propiophenone, valerophenone, and octanophenone as references.

Sequence of human GhrR (hGhrR-eYFP, HEK293 cell membranes) (Q92847 whole entry): as the sequence (Q92847 whole entry) above

IC50 [1]: 2.19 nM | IC50 ([2]; 5 min pre-stimulation with compound, then 10^-8 M ghrelin, read-out: IC50 (antagonistic potency)): 24.8 nM | Emax ([2]; COS-7, read-out: Emax (antagonistic efficacy)): 38 ± 4% | Ki (rat σ2 receptor): 87 ± 23 nM | CHI IAM [3]: 43.0
SMILES: Cc1nc2ccc(Oc3ccc(Br)cc3F)nc2c(=O)n1C[C@H]1CCCN(C(C)C)C1 [(S)-9, (S)-6-(4-Bromo-2-fluorophenoxy)-3-((1-isopropylpiperidin-3-yl)methyl)-2-methylpyrido[3,2-d]pyrimidin-4(3H)-one]
significant response (≥50% inhibition or stimulation) (adrenergic α1ARs): did not show significant responses; also recorded: did not show significant binding | significant response (≥50% inhibition or stimulation) (muscarinic M1Rs): did not show significant responses; also recorded: did not show significant binding | significant response (≥50% inhibition or stimulation) (serotonin 5-HT2BRs): did not show significant responses; also recorded: did not show significant binding | significant response (≥50% inhibition or stimulation) (adrenergic α1BRs): did not show significant responses; also recorded: did not show significant binding | Ki (GhrR): 0.01 nM
